Measured values from PMC10419174, “WR1065 conjugated to thiol-PEG polymers as novel anticancer prodrugs: broad spectrum efficacy, synergism, and drug resistance reversal” (Frontiers in Oncology, 2023).
Where “and” joins values, the source holds several entries; their conditions need not be identical. Equal entries are not always repeated. Where two headings read alike, the source gives them in different places.

Legend:
[1] = system: Mammary gland HCC38 cells; test: CyQUANT-NF proliferation assay, 48-h drug treatment; assay type: cell-based
NCI-H460 NSCLC cells = conditions: 48-h treatment, amifostine ND = not definable up to 500 µM
Description: To test anticancer effectiveness of individual drugs or drug combinations, the CyQUANT®-NF proliferation assay was used with a plate reader (i) to generate standard curves for cell numbers for each cell line, (ii) to measure the starting cell numbers at initiation of drug treatment, and (iii) to obtain fluorescence readings from cells in 96-well plates for comparisons to a standard curve for the relevant cancer cell line and quantifying cell viability after drug treatments. […] Trypan blue exclusion was used to estimate cell numbers in a few pilot experiments and thereafter was applied to confirm very low viable cell numbers and cell death.
A series of experiments was conducted to determine the relative efficacy of 4SP65, 1LP65, and amifostine as single agents in the same human cancer cell lines.
Five metrics were calculated and used to characterize the shape of the dose-response curve following exposure to a single test agent. Using cell numbers based on fluorescence measurements and standard curves, the percentage growth was calculated at each drug concentration level. The percentage of growth inhibition was calculated as follows:
where Tz = cell numbers or fluorescence counts at time xero, C = vehicle-exposed control cell numbers at the end of the assessment time period, and Ti = test agent-exposed cell numbers or fluorescence counts at each drug concentration. […] The LC50/99 was calculated using Equation 2 = -50 and Eq. 2 = -99, respectively. […] For NHMECs, the relationships between drug exposure levels and fluorescence units were used to define dose-response metrics. The selectivity index values for individual drugs were calculated using IC50 levels in NHMECs divided by the IC50 value for each cancer cell line. Statistical comparisons of differences in individual dose-response metrics between drug treatments and cell lines were conducted using Student’s t-test, with P-values <0.05 considered significant.
Relative cell growth inhibition values for differing levels of each drug alone and in combination were input into SynergyFinder to generate dose-response curves for each drug alone and to produce a dose-response matrix. The dose-response matrix data then were used in generating a two-dimension heatmap and three-dimension volcano plot to visualize the distribution of areas of differing degrees of synergism and to calculate average and maximum synergy scores in selected human cancer cell lines. The expected drug combination responses were calculated using both the Highest Single Agent (HSA) model and the Zero interaction potency (ZIP) model.

Prostate DU145 cells = test: cells
Description: (§1) The percentage of growth inhibition was calculated as follows: […]

NCI-H1975 NSCLC cells = test: cells
Description: as §1

[2] = Solubility, storage and stability of 4SP65 and 1LP65; assay type: physicochemical
Description: prepared for use and that was not altered by the solvent used, heating up to 37 °C for up to 3 days, and shaking or rocking for up to 3 days at RT or 4°C. For experiment, an aliquot of drug was first mixed in medium, the solvent was removed and saved, and gel pieces were recovered, dried on a vacuum pump, […]
The difference in the starting weight of drug placed into solvent minus the weight of the residue after drying on a vacuum pump was considered to represent the amount of drug that went into solution. The amount of drug that was dissolved at a given time ranged from 40 to 61%, averaging 50.7 ± 8.1% (SD). The weight of the 4SP65 in solution was then used for diluting the drug to concentrations of 200 or 400 µM in supplemented RPMI or DMEM/F12 medium for routine treatment of cells. The dried residue was not used in the in vitro drug efficacy studies. The formation of a gel in the aqueous solvents tested was unexpected since […]
few free thiols in polymer arms of the PEG scaffold for cross-linking reactions to occur. However, unintended topical entanglements between polymer chains of multi-arm PEG-thiol molecules without disulfide formation have been reported (Tang and Bradley 2014 24860800). Aliquots of 4SP65 dissolved in FBS enriched medium has remained stable for >6 months while remnants of the original viscous polymer have maintained stability without any apparent loss of activity when stored for 60 […]
However, the bulk of the product was dissolved at 40 mM in DMSO and stored in aliquots at −80°C for future use once by further dilution in DMSO and then final dilution in medium for treatment of normal human epithelium and human cancer cell lines at working solutions of 4 mM or 400 µM drug. 1LP65 has maintained stability for six months in frozen aliquots but should be stable in DMSO at −80°C for two to three years based upon recommended storage conditions for cystamine dihydrochloride (Selleck Chemical product information), an analogous 225 Da compound with a disulfide bond and amine groups like 1LP65. […]

NCI-H1437 NSCLC cells = conditions: 48-h treatment, amifostine ND = not definable up to 500 µM
Description: as §1

[3] = system: Strain-2 and Strain-3 NHMECs; assay type: cell-based; conditions: for cell growth, % of control cell values: 500 µM
Description: Normal human mammary epithelial cell (NHMEC) strains used to assess potential cytotoxicity of 4SP65 and 1LP65 were established from reduction mammoplasty tissue from a healthy donor (M99005 or ‘Strain-1’) ([53]) or purchased from ATCC (Manassas, VA, USA; batch#70043304 or ‘Strain-2’) or Cell Applications (San Diego, CA, USA; lot#1669 or ‘Strain-3’). Human cancer cell lines including HCC38, MDA-MB-231, A549, National Cancer Institute (NCI)-H460, NCI-H1437, NCI-H1975, DU145, LNCaP, PC3, PANC1, SKOV3, and HL60, which were free of Mycoplasma, were purchased from ATCC. HMESO1, PPMMill, and TOV21G cells, obtained from Dr. Brian Cunniff, were verified to be Mycoplasma negative using the LookOut® Mycoplasma PCR Detection Kit (Sigma-Aldrich) and to match previously annotated DNA fingerprints by the Vermont Integrative Genomics Resource DNA Analysis Facility.
To assess the effects of 4SP65 or 1LP65 on the growth of normal epithelium, experiments were performed using NHMEC strains from differing donors ([53]). Strain-1 NHMECs were plated at 5,000 cells/well in 24-well plates and allowed to reach 50% confluence before treatment with 0-150 µM 4SP65 for 48 h. Cell viability was determined using a hemocytometer and trypan blue exclusion assay. Two other NHMEC strains, exposed to 0-150 µM 4SP65 or 0-500 µM 1LP65 for 48 h, were handled in the same fashion except that viability of cells in 96-well plates was determined using CyQUANT dye. Due to the short life span of these NHMECs, standard curves were not generated and fluorescence readings were used as a surrogate marker of cell number ([54]).

[4] = 48-h treatment, amifostine ND = not definable up to 500 µM
[5] = read-out: LC50, 48-h treatment, amifostine ND = not definable up to 500 µM

Q: With `COCCOCCOCCOCCOCCOCCSSCCNCCCN.O=C(O)C(F)(F)F.O=C(O)C(F)(F)F` [1LP65, m-PEG6-S-S-WR1065] as the compound, how does the GI50 [1, 4] read?
A: The GI50 was 36.5 ± 2.3 µM.

Q: And the IC50 [1, 4]?
A: The IC50 was 47.3 ± 2.2 µM.

Q: What about the LC99 [1, 4] of the same compound?
A: The LC99 was 83.9 ± 2.9 µM.

Q: And the TGI [1, 4]?
A: The TGI was 46.9 ± 2.5 µM.

Q: What about the CC50 ([1]; 48-h treatment, amifostine ND = not definable up to 500 µM, read-out: LC50 (the source's name)) of the same compound?
A: The CC50 was 59.9 ± 2.9 µM.

Q: What about the “Dose reduction value AMF ÷ 1LP65” value ([1]; at GI50) of the same compound?
A: Its value is 2.1 fold.

Q: And the “Dose reduction value AMF ÷ 1LP65” value ([1]; at IC50)?
A: The value was 5.8 fold.

Q: And the “Dose reduction value AMF ÷ 1LP65” value ([1]; at TGI)?
A: The value was 5.4 fold.

Q: What about the GI50 (NCI-H460 NSCLC cells) of the same compound?
A: Its GI50 is 77.7 ± 15 µM.

Q: And the IC50 (NCI-H460 NSCLC cells)?
A: Its IC50 is 90.1 ± 16.6 µM.

Q: And the LC99 (NCI-H460 NSCLC cells)?
A: The LC99 was 182 ± 6.7 µM.

Q: What about the TGI (NCI-H460 NSCLC cells) of the same compound?
A: The TGI was 124 ± 13.3 µM and 124 µM.

Q: What about the CC50 (NCI-H460 NSCLC cells; read-out: LC50) of the same compound?
A: The CC50 was 155 ± 5.1 µM.

Q: What about the GI50 (Prostate DU145 cells; [4]) of the same compound?
A: The GI50 was 26.3 ± 3.8 µM.

Q: And the IC50 (Prostate DU145 cells; [4])?
A: The IC50 was 39.8 ± 3.1 µM.

Q: And the LC99 (Prostate DU145 cells; [4])?
A: The LC99 was 83.5 ± 5.5 µM.

Q: What about the TGI (Prostate DU145 cells; [4]) of the same compound?
A: Its TGI is 52.8 ± 5.3 µM and 52.8 µM.

Q: What about the “Dose reduction value AMF ÷ 1LP65” value (Prostate DU145 cells; at GI50) of the same compound?
A: The value was 4.8 fold.

Q: And the “Dose reduction value AMF ÷ 1LP65” value (Prostate DU145 cells; at IC50)?
A: Its value is 8.0 fold.

Q: And the CC50 (Prostate DU145 cells; [5])?
A: Its CC50 is 71.4 ± 4.3 µM.

Q: What about the GI50 (NCI-H1975 NSCLC cells; [4]) of the same compound?
A: The GI50 was 38.9 ± 2 µM.

Q: And the IC50 (NCI-H1975 NSCLC cells; [4])?
A: Its IC50 is 52.3 ± 4.4 µM.

Q: What about the LC99 (NCI-H1975 NSCLC cells; [4]) of the same compound?
A: The LC99 was 86.8 ± 2.7 µM.

Q: And the TGI (NCI-H1975 NSCLC cells; [4])?
A: Its TGI is 51.8 ± 4.9 µM.

Q: And the “Dose reduction value AMF ÷ 1LP65” value (NCI-H1975 NSCLC cells; at GI50)?
A: The value was 3.3 fold.

Q: And the CC50 (NCI-H1975 NSCLC cells; [5])?
A: Its CC50 is 63.3 ± 5.2 µM.

Q: And the solubility [2]?
A: Its solubility is “soluble 100% DMSO or aqueous solution”.

Q: And the “time of maintained stability” value ([2]; frozen aliquots in DMSO at −80°C)?
A: Its value is “six”.

Q: What about the GI50 (NCI-H1437 NSCLC cells) of the same compound?
A: Its GI50 is 66.2 ± 4.2 µM.

Q: What about the IC50 (NCI-H1437 NSCLC cells) of the same compound?
A: The IC50 was 74.8 ± 2.1 µM.

Q: And the LC99 (NCI-H1437 NSCLC cells)?
A: The LC99 was 234 ± 16 µM.

Q: And the TGI (NCI-H1437 NSCLC cells)?
A: Its TGI is 109 ± 17 µM.

Q: What about the CC50 (NCI-H1437 NSCLC cells; read-out: LC50) of the same compound?
A: The CC50 was 157 ± 14 µM.

Q: What about the IC50 ([3]; Strain-2 NHMECs, 48 h, read-out: IC50) of the same compound?
A: The IC50 was over 500 µM.

Q: And the IC50 ([3]; Strain-2 and Strain-3, read-out: average IC50 for the two normal cell strains)?
A: The IC50 was over 355 µM.

Q: And the “cell growth, % of control cell values” ([3]; Strain-2 cells, 48 h)?
A: Its value is 19.5%.

Q: What about the IC50 ([3]; Strain-3 NHMECs, 48 h, read-out: IC50) of the same compound?
A: The IC50 was 210 µM.

Q: And the “cell growth, % of control cell values” ([3]; Strain-3 cells, 48 h)?
A: The value was 12.5%.
